Literature values as cited in patent US11654108B1, “Sennoside medicated chews” (MEDICATED CHEWS, LLC, priority 2022, dated 2023).

[1] = after oral administration of sennosides

sennosides
metabolites excreted in urine [1]: 3-6%
sennosides excreted in feces as polymers (polyquinones) [1]: 90%
unchanged sennosides, sennidins, rheinanthrone and rhein excreted in feces [1]: 2-6%
absorption in the upper gut / splitting by human digestive enzymes (upper gut, human digestive enzymes): neither absorbed in the upper gut nor split by human digestive enzymes
